# Assay results taken from publication PMC10666548, “Identification of the bacterial metabolite aerugine as potential trigger of human dopaminergic neurodegeneration” (Environment international, 2023).
# Experiments:
# HeLa = experiment: Cell line viability, resazurin reduction, 72 h; type: cell-based, human; conditions: at <100 μM
# Protocol: (§1) Hek293FT were acquired from ThermoFisher Scientific (cat. no. R70007). HepG2 were acquired from ATCC (HB-8065). HeLa were acquired from ATCC (CCL-2). The cell culture was performed as described previously ([Dolde et al., 2021]). Briefly, the cell lines were kept in DMEM Glutamax with 10% FCS and 1% penicillin/streptomycin at 37 °C with 5% CO2. They were grown in normal cell culture flasks (Sarstedt) to 75–90% confluence and seeded into standard 96-well plates 24 h prior to compound treatment. The cells were treated by performing a medium change to Advanced DMEM/F12 supplemented with 2 mM L-glutamine containing the indicated compound concentrations.
# (§2) The assay was performed as described previously ([Schildknecht et al., 2009]). In brief, cells were stained with 10 μg/ml resazurin and incubated for 30 min at 37 °C and 5% CO2. The fluorescence of resazurin was detected with an excitation wavelength of 530 nm, using a 590 nm long-pass filter to record the emission.
# (§3) Fig. 3. Cell type specificity of aerugine cytotoxicity. A Cultures of LUHMES neurons were used on d0 (proliferating, blue), d2 (immature, black) or d6 (mature, red) of differentiation for cytotoxicity testing. Cells were exposed to nine serial dilutions of synthetic aerugine. The cell viability was assessed 24 h later by calcein-AM & H-33342 staining and high content imaging. […] Dotted lines at 4 μM indicate the average EC50 for mature LUHMES. […] They were treated for 72 h with synthetic aerugine. The overall cell viability was assessed by measuring resazurin reduction in technical triplicates. Data are presented as means ± range of two biological replicates (different experiments). C Three iPSC-derived neuronal cell types were treated for 24 h with synthetic aerugine. The cell viability was assessed 24 h later by calcein-AM & H-33342 staining and high content imaging. Data are presented as means ± SEM of three biological replicates (different experiments). D Lack of cytotoxic or bacteriostatic effects of aerugine (20 μM) on exemplary gram-positive and gram-negative microbes: The growth characteristics of Enterococcus faecalis (gram-positive) and Neisseria gonorrhoeae MS11 (gram-negative) were followed during the log growth phase in their respective culture media. Data are from one biological replicate.
# HepG2 = experiment: Cell line viability, resazurin reduction, 72 h; type: cell-based, human; conditions: HepG2, 72 h, at <100 μM
# Protocol: as §1, §2, §3
compound,measurement,setting,value
"OCC1CSC(c2ccccc2O)=N1 (stereo not shown) [aerugine, 2-[4-(hydroxymethyl)-4,5-dihydro-1,3-thiazol-2-yl]phenol]","toxicity (overall cell viability, resazurin reduction)",HeLa,no toxicity was observed
same,"toxicity (overall cell viability, resazurin reduction)",HeLa; listed as Aerugine,non-toxic
same,"toxicity (overall cell viability, resazurin reduction)",HepG2,no toxicity was observed
same,"toxicity (overall cell viability, resazurin reduction)",HepG2; listed as Aerugine,non-toxic
